Among the test systems are A498 renal; CCRF-CEM leukemia; M14 melanoma; NCI-H226 lung; OVCAR-8 ovarian; SF-539 CNS; SK-MEL-2 melanoma; SK-MEL-5 melanoma.
Assay in all cases: growth of human tumour cells (NCI), 48 h

The structures appear in SMILES notation. Several values for one entry are separate records, joined by “and”; a condition that tells them apart may be missing. Identical values can stand only once.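 Briefly, cells in 96-well plates were exposed to five compound concentrations for 48 h, and endpoints were estimated by linear interpolation. Here, GI50 denotes the concentration required for 50% inhibition of growth. TGI denotes the concentration required for complete inhibition of growth.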 Where only a bound is given, the exact number is not on record here.

For the molecule `CC(C)=CCC(O)C1=CC(=O)c2c(O)ccc(O)c2C1=O` (stereo not given), the TGI in the assay on A498 renal worked out at 4.08 µM; in the assay with CCRF-CEM leukemia, 0.399 µM; with M14 melanoma, 2.52 µM; with NCI-H226 lung, 2.3 µM; with OVCAR-8 ovarian it was 3.35 µM; in the assay with SF-539 CNS, 3.01 µM. Moreover, the TGI in the assay on SK-MEL-2 melanoma amounted to 3.83 µM; in the assay with SK-MEL-5 melanoma, 1.88 µM.

As for `C[C@]12CCC3c4ccc(O)cc4CCC3C1CC[C@@]2(O)CNC(=O)/C=C/c1ccc(O)c(O)c1` (stereo not given in full), the GI50 in the assay with A498 renal was 14.9 µM; in the assay with CCRF-CEM leukemia, 4.33 µM; in the assay with M14 melanoma, 10.1 µM; in the assay on NCI-H226 lung, 15.4 µM; in the assay on OVCAR-8 ovarian, 2.65 µM; in the assay with SF-539 CNS it was 5.1 µM. The figures for the GI50 with SK-MEL-2 melanoma and in the assay on SK-MEL-5 melanoma were 13.5 µM and 3.23 µM, respectively. Further, the TGI in the assay on A498 renal came out at 29.8 µM; with CCRF-CEM leukemia it was 31.2 µM; in the assay with M14 melanoma, 22.5 µM; in the assay with NCI-H226 lung, 33.1 µM; in the assay on OVCAR-8 ovarian it was 17.1 µM; in the assay on SF-539 CNS it was 18 µM. Besides, the TGI in the assay on SK-MEL-2 melanoma amounted to 32.2 µM; in the assay on SK-MEL-5 melanoma, 12 µM.

In the case of `O=C1CCCCN1c1ccccc1C#C/C=C\C#Cc1ccccc1C(F)(F)F`, the GI50 in the assay with A498 renal was 2.25 µM; in the assay with CCRF-CEM leukemia, 1.56 µM; in the assay with M14 melanoma, 0.909 µM; with NCI-H226 lung it was 1.28 µM; in the assay with OVCAR-8 ovarian it was 1.49 µM; in the assay on SF-539 CNS, 1.44 µM. Besides, the GI50 in the assay on SK-MEL-2 melanoma was 7.26 µM; in the assay with SK-MEL-5 melanoma, 2.75 µM. Besides, the TGI in the assay with A498 renal was 28.4 µM; in the assay on CCRF-CEM leukemia it was 3.96 µM; in the assay with M14 melanoma, 2.29 µM; with NCI-H226 lung it was 3.7 µM; with OVCAR-8 ovarian, 5.64 µM; with SF-539 CNS, 4.43 µM. Moreover, the TGI is over 50 µM with SK-MEL-2 melanoma and 12.7 µM in the assay with SK-MEL-5 melanoma.

Take `CCCCCCCCCCCCCCCC[N+](C)(C)Cc1ccccc1`: the GI50 was 1.92 µM and 1.87 µM with A498 renal; 1.2 µM in the assay with M14 melanoma; 1.33 µM with SK-MEL-5 melanoma. Moreover, the TGI in the assay on A498 renal was 6.3 µM and 4.83 µM; with M14 melanoma it was 2.49 µM; in the assay with SK-MEL-5 melanoma it was 2.62 µM.

For `O=C1CCC2(c3ccc(Cl)cc3)Nc3ccncc3N12` (stereo not given), the TGI with CCRF-CEM leukemia, in the assay with M14 melanoma, in the assay with NCI-H226 lung, in the assay on OVCAR-8 ovarian, in the assay with SF-539 CNS and with SK-MEL-2 melanoma was over 10 µM in each case.

With `COc1cc(C2CC(C)(O)Oc3cc4c(cc32)OCO4)cc(OC)c1OC` (stereo not given), the TGI was over 100 µM in the assay on A498 renal; over 100 µM in the assay on CCRF-CEM leukemia; over 100 µM with M14 melanoma; 6.01 µM with OVCAR-8 ovarian; 0.518 µM in the assay with SF-539 CNS; 0.494 µM in the assay with SK-MEL-5 melanoma.

Consider `CCCCCCCCCCCCC(O)c1ccc(C#CCCCCCCCCCO)o1` (stereo not given), for which the GI50 in the assay with CCRF-CEM leukemia is 23.2 µM; with M14 melanoma it was 17.4 µM; in the assay on NCI-H226 lung, 21.2 µM; in the assay with OVCAR-8 ovarian it was 16.5 µM; in the assay with SF-539 CNS it was 21.1 µM; with SK-MEL-2 melanoma it was 26.4 µM. Moreover, the GI50 in the assay with SK-MEL-5 melanoma is 25.5 µM. In addition, the TGI with CCRF-CEM leukemia is 51.4 µM; in the assay with M14 melanoma, 31.9 µM; with NCI-H226 lung, 37.9 µM; in the assay with OVCAR-8 ovarian, 33.6 µM; in the assay on SF-539 CNS, 36.8 µM; with SK-MEL-2 melanoma, 81 µM. In addition, in the assay with SK-MEL-5 melanoma, the TGI turned out to be 47.2 µM.

Consider `Nc1cc(NN=C(c2ccc(O)cc2)c2ccc(O)cc2)c([N+](=O)[O-])cc1[N+](=O)[O-]`, for which the GI50 is 1.69 µM in the assay with A498 renal; 2.54 µM in the assay with CCRF-CEM leukemia; 1.71 µM with M14 melanoma; 3.12 µM with OVCAR-8 ovarian; 1.7 µM with SF-539 CNS; 1.52 µM in the assay on SK-MEL-5 melanoma. Besides, the TGI is 3.55 µM with A498 renal; 6.13 µM with CCRF-CEM leukemia; 3.49 µM in the assay on M14 melanoma; 15.1 µM in the assay on OVCAR-8 ovarian; 3.85 µM in the assay on SF-539 CNS; 2.85 µM in the assay on SK-MEL-5 melanoma.

On to `COc1ccc2nc(NC(=O)CSc3nnc4n3S(=O)(=O)c3ccccc3N4c3ccccc3)sc2c1`, for which the GI50 in the assay on A498 renal, in the assay on CCRF-CEM leukemia, in the assay on M14 melanoma, with NCI-H226 lung, with OVCAR-8 ovarian and in the assay with SF-539 CNS was over 100 µM in each case. Further, the GI50 in the assay with SK-MEL-5 melanoma was over 100 µM. Further, the TGI with A498 renal, in the assay on CCRF-CEM leukemia, in the assay on M14 melanoma, with NCI-H226 lung, with OVCAR-8 ovarian and in the assay on SF-539 CNS was over 100 µM throughout. The molecule further yielded a TGI with SK-MEL-5 melanoma of over 100 µM.

Take `COc1cc(/C(C#N)=C/c2nc3c(N4CCOCC4)nc(Cl)nc3n2C)cc(OC)c1OC`: the GI50 was under 0.01 µM in the assay with A498 renal; under 0.01 µM with CCRF-CEM leukemia; under 0.01 µM in the assay on OVCAR-8 ovarian; under 0.01 µM with SF-539 CNS; under 0.0144 µM in the assay with SK-MEL-2 melanoma; under 0.01 µM with SK-MEL-5 melanoma. The TGI with A498 renal is under 0.01 µM; in the assay with CCRF-CEM leukemia, 0.668 µM; in the assay on NCI-H226 lung it was 3.03 µM; in the assay with OVCAR-8 ovarian it was 31.3 µM; in the assay with SF-539 CNS, under 0.01 µM; in the assay on SK-MEL-2 melanoma, 62.7 µM. This molecule also gave a TGI with SK-MEL-5 melanoma of 0.0268 µM.

As for `N[C@@H]1CCCC[C@@H]1N.O=P([O-])([O-])CN(CCN(CP(=O)([O-])[O-])CP(=O)([O-])[O-])CP(=O)([O-])[O-].[Pt+2]`, the GI50 in the assay with A498 renal, in the assay on M14 melanoma, in the assay on NCI-H226 lung, in the assay on OVCAR-8 ovarian, in the assay with SF-539 CNS and with SK-MEL-2 melanoma was over 25 µM in each case. In addition, in the assay with SK-MEL-5 melanoma, the GI50 was over 25 µM. In addition, the TGI in the assay with A498 renal, in the assay with M14 melanoma, in the assay with NCI-H226 lung, with OVCAR-8 ovarian, with SF-539 CNS and in the assay on SK-MEL-2 melanoma was over 25 µM in each case. This molecule displayed a TGI in the assay with SK-MEL-5 melanoma of over 25 µM.

As for `CCCCCCCCCCn1cc[n+](C)c1`, the GI50 is 0.383 µM with A498 renal; 0.43 µM in the assay on CCRF-CEM leukemia; 1.9 µM with M14 melanoma; 2.43 µM in the assay on NCI-H226 lung; 1.67 µM in the assay on OVCAR-8 ovarian; 2.51 µM in the assay with SF-539 CNS. The GI50 in the assay on SK-MEL-5 melanoma was 1.17 µM. In addition, the TGI was 9.73 µM in the assay with A498 renal; 4.51 µM in the assay with CCRF-CEM leukemia; 13.5 µM in the assay on M14 melanoma; 47 µM in the assay with NCI-H226 lung; 15.8 µM with OVCAR-8 ovarian; 13.5 µM in the assay with SF-539 CNS. Moreover, in the assay on SK-MEL-5 melanoma, the TGI was 2.79 µM.

Consider `Oc1[nH]c2ccccc2c1N=Nc1nc(-c2ccc(Br)cc2)cs1`, for which the TGI was 61.8 µM with CCRF-CEM leukemia; 59.2 µM in the assay with M14 melanoma; 35.8 µM in the assay with OVCAR-8 ovarian; 34.3 µM in the assay with SF-539 CNS; over 100 µM in the assay with SK-MEL-2 melanoma; 33.4 µM in the assay on SK-MEL-5 melanoma.

In the case of `Nc1n[nH]c2cccc(C#Cc3cccc(C(=O)Nc4ccc(CN5CCOCC5)c(C(F)(F)F)c4)c3)c12`, the GI50 in the assay on CCRF-CEM leukemia was 2.26 µM; with M14 melanoma, 1.17 µM; in the assay on NCI-H226 lung, 1.14 µM; in the assay on OVCAR-8 ovarian it was 2.54 µM; with SF-539 CNS it was 1.05 µM; in the assay on SK-MEL-2 melanoma it was 2.07 µM. Besides, the GI50 in the assay with SK-MEL-5 melanoma was 1.4 µM. In addition, the TGI stood at 11.5 µM in the assay on CCRF-CEM leukemia; 3.59 µM in the assay with M14 melanoma; 7.81 µM in the assay on NCI-H226 lung; 8.18 µM in the assay with OVCAR-8 ovarian; 3.47 µM with SF-539 CNS; 5.81 µM with SK-MEL-2 melanoma. Besides, in the assay on SK-MEL-5 melanoma, the TGI worked out at 3.26 µM.

As for `Cn1ccc2c3c(Oc4ccc(NC(N)=O)cc4)ccnc3ccc21`, the GI50 in the assay on A498 renal, with M14 melanoma, in the assay with NCI-H226 lung, in the assay on OVCAR-8 ovarian, in the assay with SF-539 CNS and with SK-MEL-2 melanoma was over 100 µM throughout. For the same molecule, in the assay with SK-MEL-5 melanoma, the GI50 is 20.7 µM. Also, the TGI in the assay on A498 renal, in the assay on M14 melanoma, with NCI-H226 lung, in the assay on OVCAR-8 ovarian, with SF-539 CNS and in the assay with SK-MEL-2 melanoma was over 100 µM throughout. This molecule displayed a TGI in the assay on SK-MEL-5 melanoma of over 100 µM.

On to `COc1cc(-c2ccc3cc(OC)c(OC)c(OC)c3c2)cc(OC)c1OC`, for which the GI50 in the assay on A498 renal is 11.1 µM; with CCRF-CEM leukemia it was over 100 µM; with M14 melanoma, 9.52 µM; with NCI-H226 lung, over 100 µM; with OVCAR-8 ovarian, over 100 µM; in the assay on SF-539 CNS, 23.6 µM. Also, the GI50 with SK-MEL-2 melanoma is 16.6 µM. Further, the TGI with A498 renal was 91.8 µM; in the assay on CCRF-CEM leukemia it was over 100 µM; in the assay on M14 melanoma, over 100 µM; with NCI-H226 lung, over 100 µM; in the assay with OVCAR-8 ovarian it was over 100 µM; in the assay with SF-539 CNS it was over 100 µM. The molecule also showed a TGI in the assay on SK-MEL-2 melanoma of over 100 µM.

`O=C1CN(c2cccc(Cl)c2)C(=O)CN1CCN1CC(=O)N(c2cccc(Cl)c2)CC1=O`: the TGI with A498 renal, with CCRF-CEM leukemia, in the assay with M14 melanoma, in the assay with OVCAR-8 ovarian, in the assay on SF-539 CNS and in the assay on SK-MEL-5 melanoma was over 100 µM each time.

On to `O=S(=O)(c1ccccc1)N1CCN(S(=O)(=O)c2ccccc2)c2ccccc21`, for which the TGI in the assay with A498 renal, with M14 melanoma, in the assay with NCI-H226 lung, in the assay on OVCAR-8 ovarian, with SF-539 CNS and in the assay with SK-MEL-2 melanoma was over 100 µM throughout. The TGI in the assay on SK-MEL-5 melanoma was over 100 µM.

(Values after PubChem BioAssay (NCI).)
